“Also recorded” adds a separate entry of the source.
Columns and labels:
[1] = tested on: delayed-type hypersensitivity (DTH); assay: DTH ear swelling, comparison of sorbinil, tolrestat, WF-3681 and NSAIDs (Experiment 23, TABLE 5); type: in vivo, mice; settings: for Effect on DTH as measured by ear swelling (in words): mouse, in vivo
Protocol: Delayed type hypersensitivity, which involves the participation of T lymphocytes and macrophages, can be studied in vivo by exposing (or priming) a mammal to a novel antigen and then reexposing (or challenging) the primed animal to the same antigen four to seven days later. The classic DTH response includes symptoms of inflammatory response, induration and erythema, which peak at 24 to 48 hours after challenging and then decline slowly.
Eight-week old female C57BL/6J mice (Jackson Labs) were divided into primed and unprimed groups. The five mice in the primed group were primed to 2,4-dinitrofluorobenzene (DNFB; Sigma Chemical Co., Grade 1, approx. 98%, Lot 129C-0065, No. d-6879) by painting their shaved ventral skins with 0.1 ml of 0.5% DNFB in ethanol:acetone (3:1). The five mice in the unprimed group were shaved and topically painted on their ventral skins with the ethanol:acetone (3:1) vehicle alone. The mice in both groups were challenged with DNFB four days later. A suitable patch of skin, the ear, was chosen for challenging. One ear was designated for challenging and the other to serve as a control. The thickness of each ear across the pinna was measured using micrometer calipers. The first measurements were taken four days after priming and are plotted as day 0 in FIG. 13. Next, each mouse was subjected to the following challenge regimen: one ear was challenged with one drop of 0.35% DNFB in olive oil, and the other (unchallenged control) ear was exposed to olive oil alone. The ear thicknesses (ET) of the challenged ear and the unchallenged ear were measured daily, and the swelling responses are plotted in FIG. 13 as: [formula]
Three groups of eight-week old female C57BL/6J mice were primed to DNFB as previously described. […] Six hours later the first sets of ear measurements were taken, and one ear of each mouse was challenged.
The Table has 4 columns, listing (left to right) each drug tested in column 1, drug concentrations in column 2, relative swelling in column 3, and effectiveness in column 4.

[2] = tested on: ear swelling in response to PMA; settings: general statement on NSAIDs; cited from earlier work
[3] = tested on: Human polymorphonuclear leukocytes (PMNs); settings: known from the art; cited from earlier work
[4] = target: aldose reductase; settings: approximate molar concentration necessary for 50% inhibition of aldose reductase; cited from earlier work
[5] = tested on: Human polymorphonuclear leukocytes (PMNs); assay: LTB4 release by polymorphonuclear leukocytes (Experiment 10); type: cell-based; settings: normal human PMNs
Excerpt: Human polymorphonuclear leukocytes (PMNs) were used to study LTB4 release, which is known to be involved in inflammation.

[6] = tested on: ear swelling produced by topical application of arachidonic acid; assay: Ear swelling produced by topical arachidonic acid (Experiment 22); type: in vivo, mice; settings: topical administration
[7] = concentration 8.5 μM, 0 = no effect

Row | Compound | relative swelling (R) ([1]; concentration 8.5 μM) | effectiveness (1 - R) (100%) [1, 7] | Effect on DTH as measured by ear swelling (in words) [1] | IC50 [4] | other results
1 | CC(=O)Nc1ccc(O)cc1 [Acetaminophen, acetaminophen] | 1.0 | 0% | not effective in preventing DTH | – | –
2 | CC(=O)Oc1ccccc1C(=O)O [Aspirin, acetylsalicylic acid] | 1.0 | 0% | not effective in preventing DTH; also recorded: failed to inhibit DTH | ~100 µM | Swelling of mouse ears in response to PMA (NSAIDs, stated in contrast) [2]: inhibit this response; LTB4 production (known) [3]: inhibit LTB4 production
3 | O=c1c(O)c(-c2ccccc2)oc2ccccc12 [Hydroxyflavone, 3-hydroxyflavone] | – | – | – | ~1 µM | –
4 | CC(C)Cc1ccc(C(C)C(=O)O)cc1 (centres unmarked) [Ibuprofen, ibuprofen] | 1.0 | 0% | not effective in preventing DTH | – | –
5 | CCC1(c2ccccc2)C(=O)NC(=O)NC1=O [Phenobarbital, phenobarbital] | – | – | – | ~1000 µM | –
6 | C[C@@H]1O[C@@H](Oc2c(-c3ccc(O)c(O)c3)oc3cc(O)cc(O)c3c2=O)[C@H](O)[C@H](O)[C@H]1O [Quercitrin, quercitrin] | – | – | not effective in preventing DTH | – | effectiveness (1 - R) (100%) ([1]; concentration 3 μM): 2%; relative swelling (R) ([1]; concentration 3 μM): 0.98
7 | O=C(O)CCC1OC(=O)C(O)=C1c1ccccc1 (centres unmarked) [WF-3681, 3-(2,5-dihydro-4-hydroxy-5-oxo-3-phenyl-2-furyl)propionic acid] | – | – | strong and substantially identical inhibitory effect | – | Production of LTB4 [5]: no effect; effectiveness (1 - R) (100%) ([1]; concentration 2.125 μM): 4%; relative swelling (R) ([1]; concentration 2.125 μM): 0.96; effectiveness (1 - R) (100%) ([1]; concentration 4.25 μM): 39%; relative swelling (R) ([1]; concentration 4.25 μM): 0.62; relative swelling (R) ([1]; concentration 6 μM): 0.68
8 | COc1ccc2c(c1)c(CC(=O)O)c(C)n2C(=O)c1ccc(Cl)cc1 [indomethacin] | – | – | – | – | Ear swelling produced by topical arachidonic acid [6]: completely inhibited
9 | CC1=C(/C=C/C(C)=C/C=C/C(C)=C/C(=O)O)C(C)(C)CCC1 [retinoic acid] | – | – | – | – | LTB4 production (known) [3]: inhibit LTB4 production
